Results from ChEMBL document CHEMBL4428064, “Discovery and antiparasitic activity of AZ960 as a Trypanosoma brucei ERK8 inhibitor” (Bioorg Med Chem, 2016).

Legend:
Trypanosoma brucei [1] = assay: Antiparasitic activity against bloodstream form of Trypanosoma brucei 221 infected in mouse VSMC assessed as reduction in log10 RLU at 1 uM after 48 hrs by luciferase reporter gene assay; assay type: functional
Trypanosoma brucei [2] = assay: Antiparasitic activity against bloodstream form of Trypanosoma brucei 221 infected in mouse VSMC assessed as parasitic proliferation at 1 uM after 48 hrs by luciferase reporter gene assay; assay type: functional
Trypanosoma brucei [3] = assay: Antiparasitic activity against bloodstream form of Trypanosoma brucei 221 infected in mouse VSMC assessed as reduction in parasitic proliferation after 48 hrs by cell titer-glo based assay; assay type: functional, organism-based; settings: Trypanosoma brucei, 221, VSMC
Trypanosoma brucei [4] = assay: Inhibition of GST-tagged Trypanosoma brucei ERK8 autophosphorylation expressed in Escherichia coli using myelin basic protein as substrate after 30 mins in presence of 32P-gamma-ATP by SDS-PAGE based autoradiography
[5] = Selectivity ratio of IC50 for rat ins-1 cells to IC50 for bloodstream form of Trypanosoma brucei 221; assay type: toxicity; settings: read-out: Ratio IC50
[6] = Cytotoxicity against mouse VSMC assessed as cell growth inhibition
[7] = molecular target: Tyrosine-protein kinase JAK2 (Homo sapiens, UniProt O60674, V617F); assay: Inhibition of JAK2 V617F mutant (unknown origin) using L-Ahx-IPTSPITTTYFFFKKK-COOH as substrate in presence of ATP
[8] = Selectivity ratio of IC50 for mouse vSMC to IC50 for bloodstream form of Trypanosoma brucei 221; assay type: toxicity; settings: read-out: Ratio IC50
[9] = Inhibition of GST-tagged Trypanosoma brucei ERK8 expressed in Escherichia coli using recombinant myelin basic protein as substrate after 30 mins in presence of 32P-gamma-ATP by Michaelis-Menten analysis
INS1 = assay: Cytotoxicity against rat INS-1 cells assessed as cell growth inhibition; assay type: cell-based

Sequence of Tyrosine-protein kinase JAK2 (O60674 whole entry V617F): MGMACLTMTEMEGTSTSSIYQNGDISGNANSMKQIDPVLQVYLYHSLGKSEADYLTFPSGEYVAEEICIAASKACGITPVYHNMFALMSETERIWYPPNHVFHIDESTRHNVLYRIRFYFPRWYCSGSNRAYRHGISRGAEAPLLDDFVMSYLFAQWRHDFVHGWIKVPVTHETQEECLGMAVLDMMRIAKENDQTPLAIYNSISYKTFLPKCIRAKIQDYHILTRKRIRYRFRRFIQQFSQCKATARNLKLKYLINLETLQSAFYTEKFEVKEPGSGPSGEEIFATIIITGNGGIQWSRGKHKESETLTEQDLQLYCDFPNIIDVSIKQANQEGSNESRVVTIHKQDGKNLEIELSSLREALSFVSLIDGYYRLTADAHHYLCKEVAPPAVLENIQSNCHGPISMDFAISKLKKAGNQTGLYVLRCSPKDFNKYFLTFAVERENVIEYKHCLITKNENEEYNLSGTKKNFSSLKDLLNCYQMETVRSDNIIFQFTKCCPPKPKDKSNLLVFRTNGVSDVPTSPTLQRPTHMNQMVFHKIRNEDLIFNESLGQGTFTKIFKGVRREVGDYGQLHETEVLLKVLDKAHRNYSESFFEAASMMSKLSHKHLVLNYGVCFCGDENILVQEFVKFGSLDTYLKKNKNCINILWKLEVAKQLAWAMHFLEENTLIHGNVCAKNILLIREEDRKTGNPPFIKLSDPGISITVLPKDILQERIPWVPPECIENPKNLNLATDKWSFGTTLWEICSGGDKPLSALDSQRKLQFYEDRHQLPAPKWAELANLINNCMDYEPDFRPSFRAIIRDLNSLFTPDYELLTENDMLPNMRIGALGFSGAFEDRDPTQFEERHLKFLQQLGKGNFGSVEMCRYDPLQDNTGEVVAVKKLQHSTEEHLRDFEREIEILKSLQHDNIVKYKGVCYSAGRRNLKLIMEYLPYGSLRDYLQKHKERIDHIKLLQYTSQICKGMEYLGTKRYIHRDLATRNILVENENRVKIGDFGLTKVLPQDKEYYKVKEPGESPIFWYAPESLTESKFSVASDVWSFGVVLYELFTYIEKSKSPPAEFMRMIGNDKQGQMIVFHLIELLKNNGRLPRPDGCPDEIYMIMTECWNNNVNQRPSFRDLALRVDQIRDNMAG

Row | Compound | reduction in log10 RLU (Trypanosoma brucei [1]) | Activity (Trypanosoma brucei [2]) | IC50 (Trypanosoma brucei [3]) | inhibition (Trypanosoma brucei [4]) | further results
1 | CCS(=O)(=O)Nc1ccc2c(c1)/C(=C(/Nc1ccc(CN3CCCCC3)cc1)c1ccccc1)C(=O)N2 [HESPERADIN] | 2 | 0.27% |  |  | 
2 | Cc1ncc(-c2ccnc(Nc3ccc(S(C)(=O)=O)cc3)n2)n1C(C)C [AZD-5438] | 2 | 0.45% | 210 nM | < 20% | 
3 | Nc1ccc(-c2ccc3ncc4ccc(=O)n(-c5cccc(C(F)(F)F)c5)c4c3c2)cn1 | 2 | 0.6% | 1000 nM |  | 
4 | O=C1c2ccccc2-c2n[nH]c3cccc1c23 | 2 | 0.26% | 570 nM |  | 
5 | CC(=O)NCC(=O)N1[C@@H]2CC[C@H]1c1ccc(Nc3ncc(C(F)(F)F)c(NC4CCC4)n3)cc12 [PF-03814735] | 2 | 1.16% | 260 nM | < 20% | 
6 | COc1ccc(-c2ccc3ncc4c(c3c2)n(-c2ccc(N3CCNCC3)c(C(F)(F)F)c2)c(=O)n4C)cn1 [BGT-226 FREE BASE] | 2 | 0.12% | 950 nM |  | 
7 | Cn1c(=O)n(-c2ccc(C(C)(C)C#N)cc2)c2c3cc(-c4cnc5ccccc5c4)ccc3ncc21 [DACTOLISIB] | 2 | 0.49% |  |  | 
8 | CNC(=O)c1nn(C)c2c1C(C)(C)Cc1cnc(Nc3ccc(N4CCN(C)CC4)cc3)nc1-2 [MILCICLIB] | 2 | 0.58% | 610 nM | < 20% | 
9 | CC(C)(C)c1cnc(CSc2cnc(NC(=O)C3CCNCC3)s2)o1 [BMS-387032] | 2 | 0.36% | 120 nM |  | 
10 | COc1ncc(-c2ccc3nccc(-c4ccnnc4)c3c2)cc1NS(=O)(=O)c1ccc(F)cc1F [OMIPALISIB] | 2 | 0.21% | 111 nM |  | 
11 | CCc1cnn2c(NCc3ccc[n+]([O-])c3)cc(N3CCCC[C@H]3CCO)nc12 [DINACICLIB] | 2 | 1.13% | 80 nM |  | 
12 | Cc1cc(Nc2nc(N[C@@H](C)c3ccc(F)cc3)c(C#N)cc2F)n[nH]1 | 2 | 0.26% | 120 nM | < 20% | selectivity ratio [5]: 83 to 84; IC50 ([6]; Mus musculus, VSMC): 25000 nM; inhibition (INH) ([6]; mouse): Dose-dependent effect; Ki [7]: 0.45 nM; selectivity ratio [8]: 208 to 210; Ki [9]: 1250 nM; IC50 (INS1; Rattus norvegicus, INS1): 10000 nM; inhibition (INH) (INS1; rat, ins1): Dose-dependent effect
